In data set [1] the test system is Human immunodeficiency virus 1. As to the kind of experiment: Antiviral activity against wild type HIV-1 IIIB infected in human MT4 cells assessed as protection against virus-induced cytopathic effect incubated for 5 days by MTT assay. Type of data set: functional, organism-based. In general terms: Cytopathic effects are the visible damage that an infection or toxin causes in cultured cells.

In data set [2] the test system is Human immunodeficiency virus 1. As to the kind of experiment: Antiviral activity against HIV-1 harboring Y188L mutant infected in human MT4 cells assessed as protection against virus-induced cytopathic effect incubated for 5 days by MTT assay. Type of data set: functional, organism-based.
Data set [3] deals with Human immunodeficiency virus 1. As to the kind of experiment: Antiviral activity against HIV-1 harboring F227L/V106A double mutant infected in human MT4 cells assessed as protection against virus-induced cytopathic effect incubated for 5 days by MTT assay. Type of data set: functional, organism-based.
Data set [4] concerns Human immunodeficiency virus 1. As to the kind of experiment: Antiviral activity against HIV-1 harboring RES056 mutant infected in human MT4 cells assessed as protection against virus-induced cytopathic effect incubated for 5 days by MTT assay. Type of data set: functional, organism-based.
In another data set the test system is MT4. As to the kind of experiment: Cytotoxicity against human MT4 cells assessed as reduction in cell viability incubated for 5 days by MTT assay. Type of data set: toxicity, cell-based. As to conditions: mt4, 120 h, 120 h, time 5 day. Background: Formazan colour is commonly taken as a measure of viable cells.
Data set [5] in a line: Selectivity index, ratio of CC50 for cytotoxicity against human MT4 cells assessed as reduction in cell viability to EC50 for antiviral activity against wild type HIV-1 IIIB infected in human MT4 cells assessed as protection against virus-induced cytopathic effect. Type of data set: toxicity, cell-based.
Data set [6] deals with T1, Human immunodeficiency virus type 1 reverse transcriptase (Human immunodeficiency virus 1, UniProt Q72547). As to the kind of experiment: Inhibition of wildtype recombinant HIV-1 Reverse transcriptase incubated for 40 mins by spectrofluorometric analysis.
In data set [7] the target is T1, Human immunodeficiency virus type 1 reverse transcriptase. As to the kind of experiment: Inhibition of HIV-1 reverse transcriptase.
The test system of data set [8] is Human immunodeficiency virus 1. As to the kind of experiment: Antiviral activity against HIV-1 harboring L100I mutant infected in human MT4 cells assessed as protection against virus-induced cytopathic effect incubated for 5 days by MTT assay. Type of data set: functional, organism-based. Particulars: Human immunodeficiency virus 1, MT4, 120 h.
Data set [9] has as its system Human immunodeficiency virus 1. As to the kind of experiment: Antiviral activity against HIV-1 harboring K103N mutant infected in human MT4 cells assessed as protection against virus-induced cytopathic effect incubated for 5 days by MTT assay. Type of data set: functional, organism-based. Particulars: Human immunodeficiency virus 1, MT4, 120 h.
Data set [10] deals with Human immunodeficiency virus 1. As to the kind of experiment: Antiviral activity against HIV-1 harboring Y181C mutant infected in human MT4 cells assessed as protection against virus-induced cytopathic effect incubated for 5 days by MTT assay. Type of data set: functional, organism-based. As to conditions: Human immunodeficiency virus 1, MT4, 120 h.
The subject of data set [11] is Human immunodeficiency virus 1. As to the kind of experiment: Antiviral activity against HIV-1 harboring E138K mutant infected in human MT4 cells assessed as protection against virus-induced cytopathic effect incubated for 5 days by MTT assay. Type of data set: functional, organism-based. As to conditions: Human immunodeficiency virus 1, MT4, 120 h.
[12] abbreviates: Human immunodeficiency virus 1, MT4, 120 h.

Values joined by “and” are separate entries in the source; they are usually repeats but may differ in a detail not shown here. Equal entries are not always repeated.

The term EC50 denotes the midpoint of the concentration-response curve. The term CC50 denotes the concentration giving 50% cytotoxicity. What is called IC50 is the concentration at which inhibition is half-maximal. `Cc1cc(-c2ccncc2)cc(C)c1Oc1nc(NC2CCN(Cc3ccc(S(=O)(=O)NCCO)cc3)CC2)ncc1CO`: the EC50 is 28 nM in data set [1] (Human immunodeficiency virus 1, IIIB, MT4, 120 h); 36 nM in data set [1] (mt4); 466 nM in data set [2] (setting [12]); 919 nM in [2] (mt4); 285 nM in [3] (setting [12]); 403 nM in [3] (mt4). The EC50 in data set [4] (mt4) was 1230 nM and 2660 nM. Besides, the CC50 in the data set on MT4 was more than 210000 nM. Besides, the selectivity ratio in [5] (MT4 cells, read-out: Ratio CC50/EC50) worked out at 5080. Moreover, the “Ratio CC50/EC50” value in [5] (mt4) is more than 5837. Moreover, the IC50 in data set [6] turned out to be 186 nM.
For the compound `Cc1cc(-c2ccc(C#N)cc2)cc(C)c1Oc1nc(NC2CCN(Cc3ccc(S(=O)(=O)N4CCC(O)CC4)cc3)CC2)ncc1CO`, the EC50 in data set [7] is 8 nM and 9 nM; in data set [2] (mt4), 125 nM and 56 nM; in data set [3] (setting [12]) it was 54 nM; in [3] (mt4), 51 nM; in data set [4] (setting [12]) it was 169 nM; in [4] (mt4), 307 nM. In addition, the EC50 worked out at 22 nM in [8], 9 nM in data set [9], 39 nM in data set [10] and 38 nM in [11]. Besides, the CC50 in the data set with MT4 is 3250 nM and 18400 nM. In addition, the IC50 in [6] stood at 595 nM.

The values above are taken from ChEMBL document CHEMBL6078645, “Expanding the Solvent/Protein Region Occupation of the Non-Nucleoside Reverse Transcriptase Inhibitor Binding Pocket for Improved Broad-Spectrum Anti-HIV-1 Efficacy: from Rigid Phenyl-Diarylpyrimidines to Flexible Hydrophilic Piperidine-Diarylpyrimidines” (J Med Chem, 2024).
